Measurements as given in patent US20240319173A1, “REAGENTS AND METHODS FOR PROMOTING ARTERIAL ENDOTHELIUM DIFFERENTIATION AND NITRIC OXIDE PRODUCTION” (Wisconsin Alumni Research Foundation, priority 2023, published 2024).

What was measured:
[1] = tested on: AECs; assay: Nitric oxide (NO) production assay with DAF-FM; format: cell-based, human; conditions: AECs treated for 2 days, 1 μM DAF-FM, flow cytometry (FIG. 4A, 4B)
Experimental: FIG. 4A is a graph of nitric oxide (NO) production in response to contacting NOS3-NLuc-2A-tdTomato construct-containing reporter cells derived from arterial endothelial with compounds identified in the screen for 2 days.
These AECs were seeded on a vitronectin-coated 24-well plate (1×10^5 cells/well) with FVIR medium. Candidate compounds were added to the medium. Two days later, the medium was changed to fresh FVIR media containing 1 μM DAF-FM (4-Amino-5-Methylamino-2′,7′-Difluorofluorescein Diacetate). Cells were cultured for 30 mins and harvested for flow cytometric analysis. DAF-FM is nonfluorescent until it reacts with NO to form a fluorescent benzotriazole. Results of these experiments are shown in FIG. 3A, FIG. 3B, and FIG. 4.

[2] = tested on: NOS3-NLuc-2A-tdTomato hPSCs; assay: Arterial endothelial cell (AEC) differentiation, flow cytometry for CD144+ DLL4+ cells; format: cell-based, human; conditions: for AEC differentiation from PSCs: general statement, timing not given
Source text: FIG. 3A is a bar graph showing arterial endothelial cell differentiation in response to treatment on days 2 through 6 of different concentrations of compounds identified in compound screening assays. Differentiated arterial endothelial cells were identified by flow cytometry for CD144+ DLL4+ cells after 6 days of treatment.
FIG. 3B is a bar graph showing arterial endothelial cell differentiation in response to three specific compounds at day 3-6 of differentiation.
NOS3-NLuc-Tom human pluripotent stem cells (hPSCs), prepared as set forth above, were cultured in E8BAC medium for two days (day 0-2) to induce mesoderm formation. On days 2-5 cells received Five Factor medium daily, and AEC collected on day 6. More than 90% of the resulting cells were CD144^+CXCR4^+DLL4^+, consistent with differentiation to AEC cells.
C21-C33 compounds were further tested to confirm their effects. […] Thus, the effects of C21, C22, and C24-C31 on AEC differentiation from NOS3-NLuc-2A-tdTomato hPSCs were measured.

[3] = compound added from day 2 to day 6 of differentiation, dose-dependent (FIG. 3A)
[4] = compound added from day 3 to day 6 of differentiation (FIG. 3B)

Structure (SMILES)	NO production (DAF-FM fluorescence) compared to control treatment [1]	percentage of AEC on day 6 compared to control treatment [2, 3]	percentage of AEC on day 6 compared to control treatment [2, 4]	AEC differentiation from PSCs [2]
O=S(=O)(N1CCCCCC1)N1CCN(c2ccnc3cc(Cl)ccc23)CC1 [C21]	increase	increase	increased	increase
COc1ccc(C2CCCN2Cc2cc(C(C)(C)C)cc(O)c2O)cc1 (centres unmarked) [C22]	increase	increase	–	increase
CCc1ccc(S(=O)(=O)N2CCCc3cc(C)ccc32)cc1 [C23]	increase	–	increased	increase
Cc1ccc(CN2C(=O)NC(C)(c3ccc(Cl)cc3Cl)C2=O)cc1 (centres unmarked) [C24]	increase	–	–	increase
CNS(=O)(=O)c1ccc(NC2CCc3ccccc32)c([N+](=O)[O-])c1 (centres unmarked) [C25]	–	–	–	increase
CC1=CC(=O)C2=C(C)CC[C@@H]3[C@H](OC(=O)[C@H]3C)[C@@H]12 [C28, Leucomisine]	–	–	–	increase
CNC(=O)c1c(F)cccc1Nc1nc(Nc2cc3c(cc2OC)CCN3C(=O)CN(C)C)nc2[nH]ccc12 [C31, GSK1838705A, reference compound]	increase	–	–	–
CCCCCCCCCCCCCCCCCCOCC(COP(=O)([O-])OCC[N+](C)(C)C)OC (centres unmarked) [C33, 1-Octadecyl-2-methylglycero-3 PC]	–	–	increased	increase
